Reference: patent US6916789B2, “Peyer's patch and/or M-cell targeting ligands” (Merrion Research I Limited, priority 2001, dated 2005)
Where no end group is shown, it is not given here. [ ]: non-standard residue; d: D form.

Tests used:
[1] = tested on: M-cells; assay: Peptide coated fluorescent polystyrene particles in mouse intestinal loops, confocal microscopy; assay type: in vivo; details: fluorescent polystyrene particles (0.289 μm), 30 minutes incubation in loops
Description: Biotinylated SEQ ID NO:40 was adsorbed to the surface of fluorescent polystyrene particles (0.289 μm) using routine methodologies at room temperature. Mouse intestinal loops containing one or more polystyrene suspensions (typically 300 μl containing 5.0×10^10 particles per ml) were incubated for 30 minutes. The Peyer's patches were excised, fixed in methanol and the M cells were counter-stained with UEA1-rhodamine for subsequent analysis by confocal microscopy. Stained tissues were examined on a BioRad MRC 600 confocal laser-scanning microscope.

[2] = tested on: Caco-2 homogenates; assay: Synthetic peptide ELISA-based binding to Caco-2 homogenates (streptavidin-peroxidase detection); parameters: species or system human
Description: In order to prepare the Caco-2 cell membrane and cytosolic fractions, confluent Caco-2 cell monolayers (grown in 75 cm^2 flasks for up to 1 week at 37° C. and 5% CO2) were washed twice in Dulbecco's PBS (DPBS). The cell monolayers were then treated with 10 mM EDTA-DPBS for 5-10 minutes at 37° C. and the cells were harvested by centrifugation at 1000 rpm for 5 minutes. The cells were then washed 3×in DPBS. The cell pellet was resuspended in 3 volumes of ice-cold HED buffer (20 mM HEPES (pH 7.67), 1 mM EGTA, 0,5 mM dithiothreitol, 1 mM phenylmethylsuphonyl fluoride (PMSF)) and the cells were allowed to swell for 5 minutes on ice. The cells were then homogenized for 30 seconds. The cell homogenates were then centrifuged in hard walled tubes at 40,000 rpm for 45 minutes at 4° C. (ultracentrifuge Ti90 rotor). The supernatant was removed and the pellet resuspended in HEDG buffer (20 mM HEPES (pH 7.67), 1 mM EGTA, 0.5 mM dithiothreithol, 100 mM NaCl, 10% glycerol, 1 mM PMSF). Three volumes of buffer were then added and the pellet was resuspended and centrifuged again at 1000 rpm for 2 minutes. The supernatant was removed and stored on ice. The procedure was repeated adding the second supernatant to the first and then the procedure was repeated 2-3 more times. The protein concentration was determined using the Bio-Rad protein assay. All fractions were stored at −80° C.
Peptide sequences (SEQ ID NOs: 3, 4, 5, 7, 8, 9, 10, 11, 14, 15, 16, 17, 19, 20, 26, 28, 29, 30) were synthesized with biotin tags at the amino terminal for all peptides and additionally at the carboxyl terminal for SEQ ID NOs:8 and 14. Binding of these peptides to Caco-2 homogenates and/or to rat intestinal tissue homogenates was tested in an ELISA-based assay with streptavidin-peroxidase detection. […] (See FIGS. 13A-13N).

[3] = tested on: Caco-2 homogenates; assay: Peptide coated particles ELISA-based binding to Caco-2 homogenates; parameters: species or system human; details: peptide adsorbed to streptavidin particles (0.289 μm)
Description: Several phage-derived peptides (SEQ ID NOs: 25, 31, 32, 33, and 40) were adsorbed to streptavidin particles (0.289 μm). Peptide coated particles were tested in an ELISA-based assay for binding to Caco-2 homogenates. […] In addition, when one double-mutant peptide ligand (SEQ ID NO:33), is adsorbed to polystyrene particles binding that is approximately 60% of that of the parent peptide is observed (See FIGS. 19A-19B).

With “yqcsytmphppv ([dY][dQ][dC][dS][dY][dT][dM][dP][dH][dP][dP][dV]) [SEQ ID NO:40]” the “binding and uptake of peptide coated particles” value [1] was “binding and uptake into M-cells”, the “binder category / binding to epithelium” value ([2]; ELISA, intestinal epithelial tissue, FIGS. 17A-17B Caco-2 homogenates) was “retained high binding” and the “Binding Assay results (Caco-2), Kd” value ([2]; Tables 9 and 10) was “(Kd˜10 μg/ml)”. The “binding of peptide coated particles” value [3] was “Binding was retained”.
